Results on 5 molecules are retold here after ChEMBL document CHEMBL3871286, “Tetrahydroquinoline-based tricyclic amines as potent and selective agonists of the 5-HT2C receptor” (Bioorg Med Chem Lett, 2016).

Data set [1] has as its target T1, 5-hydroxytryptamine receptor 2C (Homo sapiens, UniProt P28335).
T1 sequence (P28335 whole entry): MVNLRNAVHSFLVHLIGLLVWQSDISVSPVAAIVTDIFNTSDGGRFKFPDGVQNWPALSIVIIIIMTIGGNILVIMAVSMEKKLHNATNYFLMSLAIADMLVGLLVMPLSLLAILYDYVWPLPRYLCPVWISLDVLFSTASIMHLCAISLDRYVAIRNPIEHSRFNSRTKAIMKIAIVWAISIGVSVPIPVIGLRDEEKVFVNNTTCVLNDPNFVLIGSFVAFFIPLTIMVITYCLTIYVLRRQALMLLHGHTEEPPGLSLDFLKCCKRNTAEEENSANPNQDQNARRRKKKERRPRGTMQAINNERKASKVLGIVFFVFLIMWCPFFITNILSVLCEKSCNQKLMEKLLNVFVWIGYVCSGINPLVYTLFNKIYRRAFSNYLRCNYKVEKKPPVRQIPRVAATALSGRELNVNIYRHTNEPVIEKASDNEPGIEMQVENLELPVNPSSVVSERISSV
The data set can be described thus: Displacement of [125I]DOI from recombinant human 5-HT2C receptor expressed in HEK293 cell membranes after 1 hr by scintillation counting.

The target in a further data set is 5-HT2B receptor (Homo sapiens, UniProt P41595). Put plainly: Agonist activity at 5-HT2B receptor (unknown origin) expressed in HEK293 cells assessed as [3H]inositol phosphate accumulation at 10 uM after 2 hrs by scintillation counting relative to serotonin. The note with it: HEK293 cells expressing 5-HT2B receptor. The data set is classed as cell-based.
Sequence of 5-HT2B receptor (P41595 whole entry): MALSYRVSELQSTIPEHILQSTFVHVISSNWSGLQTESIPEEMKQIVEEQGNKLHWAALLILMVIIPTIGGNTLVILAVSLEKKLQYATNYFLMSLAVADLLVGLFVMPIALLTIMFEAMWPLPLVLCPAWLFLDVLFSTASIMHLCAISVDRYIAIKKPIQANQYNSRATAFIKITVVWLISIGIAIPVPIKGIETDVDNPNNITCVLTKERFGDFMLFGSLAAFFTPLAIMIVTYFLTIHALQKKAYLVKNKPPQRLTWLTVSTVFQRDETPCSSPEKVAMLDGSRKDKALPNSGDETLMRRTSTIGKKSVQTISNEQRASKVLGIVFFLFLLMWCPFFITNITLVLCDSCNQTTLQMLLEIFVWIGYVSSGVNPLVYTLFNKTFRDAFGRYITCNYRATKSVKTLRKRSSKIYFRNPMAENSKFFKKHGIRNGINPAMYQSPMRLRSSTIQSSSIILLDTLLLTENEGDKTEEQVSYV
The test system of data set [2] is Rattus norvegicus. The data set can be described thus: Antiobesity activity in Sprague-Dawley rat assessed as reduction in food intake at 3 mg/kg, po administered via oral gavage 30 mins prior to food presentation measured 60 mins post drug administration. It is filed as functional. More on the design: scale not given: the % may be the effect or the level left.

For the next data set, the target named is 5-HT2A receptor (Homo sapiens, UniProt P28223). The data set can be described thus: Agonist activity at 5-HT2A receptor (unknown origin) expressed in HEK293 cells assessed as [3H]inositol phosphate accumulation at 10 uM after 2 hrs by scintillation counting relative to serotonin. It is filed as cell-based. The note with it: HEK293 cells expressing 5-HT2A receptor.
Sequence of 5-HT2A receptor (P28223 whole entry): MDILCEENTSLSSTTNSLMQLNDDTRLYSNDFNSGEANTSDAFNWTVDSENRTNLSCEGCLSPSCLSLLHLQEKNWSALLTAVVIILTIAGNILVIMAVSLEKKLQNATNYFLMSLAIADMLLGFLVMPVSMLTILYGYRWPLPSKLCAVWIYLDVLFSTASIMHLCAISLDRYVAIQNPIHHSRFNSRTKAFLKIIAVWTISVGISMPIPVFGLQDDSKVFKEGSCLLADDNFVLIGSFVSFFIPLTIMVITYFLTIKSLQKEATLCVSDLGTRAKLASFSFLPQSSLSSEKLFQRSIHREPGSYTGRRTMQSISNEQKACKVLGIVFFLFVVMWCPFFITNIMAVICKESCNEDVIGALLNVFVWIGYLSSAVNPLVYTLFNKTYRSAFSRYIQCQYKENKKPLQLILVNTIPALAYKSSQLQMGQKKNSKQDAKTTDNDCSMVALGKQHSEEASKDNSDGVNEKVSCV

For data set [3], the target named is T1, 5-hydroxytryptamine receptor 2C. Put plainly: Agonist activity at unedited 5-HT2C receptor (unknown origin) expressed in HEK293 cells assessed as [3H]inositol phosphate accumulation after 2 hrs by scintillation counting. It is filed as functional, cell-based. The settings on record: read-out: pEC50 (converted).
Data set [4] addresses T2, 5-hydroxytryptamine receptor 2A (Homo sapiens, UniProt P28223). Put plainly: Agonist activity at 5-HT2A receptor (unknown origin) expressed in HEK293 cells assessed as [3H]inositol phosphate accumulation after 2 hrs by scintillation counting. The data set is classed as cell-based.
Data set [5] has as its target T2, 5-hydroxytryptamine receptor 2A. Put plainly: Displacement of [125I]DOI from recombinant human 5-HT2A receptor expressed in HEK293 cell membranes after 1 hr by scintillation counting.
For data set [6], the target named is T3, 5-hydroxytryptamine receptor 2C (Homo sapiens) (UniProt P28335).
T3 sequence (whole entry): T1 sequence (P28335 whole entry)
The data set can be described thus: Agonist activity at unedited 5-HT2C receptor (unknown origin) expressed in HEK293 cells assessed as [3H]inositol phosphate accumulation at 10 uM after 2 hrs by scintillation counting relative to serotonin. The data set is classed as functional, cell-based.

The target of data set [7] is T4, 5-hydroxytryptamine receptor 2B (Homo sapiens, UniProt P41595). Put plainly: Displacement of [125I]DOI from recombinant human 5-HT2B receptor expressed in HEK293 cell membranes after 1 hr by scintillation counting.
T4 sequence (P41595 whole entry): as the sequence (P41595 whole entry) above
For data set [8], the target named is T4, 5-hydroxytryptamine receptor 2B. The data set can be described thus: Agonist activity at 5-HT2B receptor (unknown origin) expressed in HEK293 cells assessed as [3H]inositol phosphate accumulation after 2 hrs by scintillation counting. The data set is classed as cell-based.
In data set [9] the test system is Rattus norvegicus. The data set can be described thus: Antiobesity activity in Sprague-Dawley rat assessed as reduction in food intake at 1 mg/kg, po administered via oral gavage 30 mins prior to food presentation measured 60 mins post drug administration. It is filed as functional. Set-up: scale not given: the % may be the effect or the level left.
Data set [10] deals with Rattus norvegicus. Put plainly: Antiobesity activity in Sprague-Dawley rat assessed as reduction in food intake at 5 mg/kg, po administered via oral gavage 30 mins prior to food presentation measured 60 mins post drug administration. More on the design: scale not given: the % may be the effect or the level left. The data set is classed as functional.
Data set [11] has as its system Rattus norvegicus. The data set can be described thus: Antiobesity activity in Sprague-Dawley rat assessed as reduction in food intake at 10 mg/kg, po administered via oral gavage 30 mins prior to food presentation measured 60 mins post drug administration. The data set is classed as functional. Set-up: scale not given: the % may be the effect or the level left.

T2 sequence (P28223 whole entry): as the sequence (P28223 whole entry) above

In the case of `CCCc1cccc2c1CCC1CNCCN21` (stereo not given), the Ki in data set [1] is 0.398 nM; in data set [5], 6.31 nM; in data set [7], 25.1 nM. The values for the maximum response (Emax) at 2 h, 10 µM at 5-HT2B receptor and at 5-HT2A receptor were 80% and 104%, respectively. Also, the results for the Activity in the data set with Rattus norvegicus [2] and with Rattus norvegicus [9] were 99% and 66%, respectively. The EC50 in data set [3] is 0.2 nM; in data set [4], 501 nM; in data set [8], 200 nM. The maximum response (Emax) in [6] was 101%.
For `c1cc(CC2CCC2)c2c(c1)N1CCNCC1CC2` (stereo not given), the figures for the Ki in data set [1], in data set [5] and in data set [7] were 0.631 nM, 7.94 nM and 63.1 nM, respectively. Moreover, the results for the maximal response (Emax) at 2 h, 10 µM at 5-HT2B receptor and on 5-HT2A receptor were 31% and 135%, respectively. The values for the Activity in the data set with Rattus norvegicus [10], with Rattus norvegicus [11] and in the data set on Rattus norvegicus [9] were 63%, 99% and 27%, respectively. Also, the EC50 in data set [3] is 3.16 nM; in data set [4] it was 2000 nM; in data set [8], 2000 nM. Further, the maximum response (Emax) in data set [6] came out at 106%.
In the case of `c1csc(Cc2cccc3c2CCC2CNCCN32)c1` (stereo not given), the Ki was 0.316 nM in data set [1], 25.1 nM in [5] and 25.1 nM in data set [7]. The figures for the Emax at 2 h, 10 µM on 5-HT2B receptor and on 5-HT2A receptor were 24% and 94%, respectively. The EC50 in data set [3] is 0.794 nM; in data set [4], 79.4 nM; in data set [8] it was 398 nM. The Emax in [6] is 106%.
With `c1ccc(Cc2cccc3c2CCC2CNCCN32)cc1` (stereo not given), the Ki in data set [1] is 0.631 nM; in [5], 1.58 nM; in data set [7] it was 39.8 nM. Besides, the Emax at 2 h, 10 µM was 20% at 5-HT2B receptor and 85% on 5-HT2A receptor. Moreover, the EC50 was 1.58 nM in data set [3], 126 nM in data set [4] and 2510 nM in data set [8]. Further, the Emax in data set [6] is 104%.
On to `Fc1ccc2c(c1Cc1ccccc1)CCC1CNCCN21` (stereo not given), for which the inhibition constant Ki in data set [1] is 0.398 nM; in [5], 0.631 nM; in data set [7] it was 12.6 nM. Also, the Emax at 2 h, 10 µM at 5-HT2B receptor came to 32%; on 5-HT2A receptor it was 114%. Further, the EC50 in data set [3] was 1 nM; in data set [4] it was 100 nM; in [8], 631 nM. In addition, in [6], the Emax was found to be 102%.
